Source: the NIST ThermoML archive (doi:10.1016/j.fluid.2010.05.001)

How the values were obtained:
[1] = 101.33 kPa, Liquid, Vibrating tube method
[2] = xn = mol fraction of the nth substance listed; conditions: 101 kPa, Liquid, Vibrating tube method

CC1CCCCN1 (stereo unspecified) [2-methylpiperidine]
[1]
Conditions | mass density [kg/m3] | molar volume [m3/mol]
288.15 K | 846.703 | 0.0001171
298.15 K | 835.787 | 0.0001187
308.15 K | 826.08 | 0.0001201
318.15 K | 817.349 | 0.0001213
328.15 K | 809.08 | 0.0001226
338.15 K | 801.96 | 0.0001237

CC1CCCCN1 (stereo unspecified) [2-methylpiperidine] + O
[2]
Conditions | mass density [kg/m3]
288.15 K, x1 = 0.022 | 992.158
288.15 K, x1 = 0.0488 | 982.491
288.15 K, x1 = 0.0966 | 965.22
288.15 K, x1 = 0.1901 | 940.03
288.15 K, x1 = 0.3019 | 918.147
288.15 K, x1 = 0.4006 | 904.274
288.15 K, x1 = 0.47 | 896.239
288.15 K, x1 = 0.59 | 883.489
288.15 K, x1 = 0.685 | 874.59
288.15 K, x1 = 0.775 | 866.186
288.15 K, x1 = 0.813 | 863.581
298.15 K, x1 = 0.0506 | 976.147
298.15 K, x1 = 0.0951 | 957.78
298.15 K, x1 = 0.1955 | 930.75
298.15 K, x1 = 0.288 | 911.236
298.15 K, x1 = 0.3958 | 894.275
298.15 K, x1 = 0.45 | 886.977
298.15 K, x1 = 0.4708 | 884.952
298.15 K, x1 = 0.5925 | 871.352
298.15 K, x1 = 0.7 | 860.793
298.15 K, x1 = 0.8043 | 851.545
308.15 K, x1 = 0.0506 | 969.86
308.15 K, x1 = 0.0951 | 951.024
308.15 K, x1 = 0.1955 | 921.38
308.15 K, x1 = 0.288 | 902.606
308.15 K, x1 = 0.388 | 886.089
308.15 K, x1 = 0.463 | 875.982
308.15 K, x1 = 0.585 | 861.756
308.15 K, x1 = 0.6501 | 855.347
318.15 K, x1 = 0.0506 | 963.421
318.15 K, x1 = 0.0951 | 943.575
318.15 K, x1 = 0.1955 | 912.95
318.15 K, x1 = 0.288 | 893.567
318.15 K, x1 = 0.388 | 876.681
318.15 K, x1 = 0.463 | 866.663
318.15 K, x1 = 0.585 | 852.312
318.15 K, x1 = 0.6501 | 846.574
328.15 K, x1 = 0.05 | 957.601
328.15 K, x1 = 0.0982 | 935.269
328.15 K, x1 = 0.3019 | 883.044
328.15 K, x1 = 0.4006 | 867.078
328.15 K, x1 = 0.4585 | 859.202
328.15 K, x1 = 0.5699 | 846.009
328.15 K, x1 = 0.6591 | 836.942
328.15 K, x1 = 0.775 | 826.192
338.15 K, x1 = 0.0951 | 926.141
338.15 K, x1 = 0.1901 | 897.2
338.15 K, x1 = 0.3019 | 873.469
338.15 K, x1 = 0.365 | 863.604
338.15 K, x1 = 0.4585 | 850.39
338.15 K, x1 = 0.5925 | 834.463
338.15 K, x1 = 0.8043 | 816.519

CN1CCCCC1 [N-methylpiperidine]
[1]
Conditions | mass density [kg/m3] | molar volume [m3/mol]
288.15 K | 822.237 | 0.0001206
298.15 K | 810.887 | 0.0001223
308.15 K | 803.846 | 0.0001234
318.15 K | 796.931 | 0.0001244
328.15 K | 785.64 | 0.0001262
338.15 K | 781.618 | 0.0001269

CN1CCCCC1 [N-methylpiperidine] + O
[2]
Conditions | mass density [kg/m3]
288.15 K, x1 = 0.0101 | 994.829
288.15 K, x1 = 0.0728 | 966.82
288.15 K, x1 = 0.0971 | 957.332
288.15 K, x1 = 0.1499 | 939.294
288.15 K, x1 = 0.2452 | 913.306
288.15 K, x1 = 0.3359 | 895.82
288.15 K, x1 = 0.3895 | 886.349
288.15 K, x1 = 0.55 | 863.074
288.15 K, x1 = 0.66 | 850.384
288.15 K, x1 = 0.7 | 846.317
288.15 K, x1 = 0.8 | 836.071
288.15 K, x1 = 0.9 | 828.075
298.15 K, x1 = 0.0133 | 990.926
298.15 K, x1 = 0.0248 | 985.215
298.15 K, x1 = 0.0299 | 982.27
298.15 K, x1 = 0.0728 | 960.309
298.15 K, x1 = 0.0971 | 949.172
298.15 K, x1 = 0.19 | 917.46
298.15 K, x1 = 0.2452 | 903.811
298.15 K, x1 = 0.3359 | 884.947
298.15 K, x1 = 0.4036 | 873.347
298.15 K, x1 = 0.453 | 865.779
298.15 K, x1 = 0.4767 | 862.238
298.15 K, x1 = 0.505 | 858.158
298.15 K, x1 = 0.595 | 846.184
298.15 K, x1 = 0.6987 | 835.141
298.15 K, x1 = 0.7907 | 826.047
298.15 K, x1 = 0.8822 | 819.375
308.15 K, x1 = 0.0133 | 987.229
308.15 K, x1 = 0.0153 | 986.286
308.15 K, x1 = 0.0248 | 980.469
308.15 K, x1 = 0.0299 | 976.97
308.15 K, x1 = 0.0728 | 952.068
308.15 K, x1 = 0.0971 | 941.377
308.15 K, x1 = 0.1972 | 908.857
308.15 K, x1 = 0.391 | 866.58
308.15 K, x1 = 0.4972 | 849.931
308.15 K, x1 = 0.57 | 840.165
308.15 K, x1 = 0.6987 | 825.724
308.15 K, x1 = 0.78 | 818.342
318.15 K, x1 = 0.00418 | 987.683
318.15 K, x1 = 0.00896 | 985.125
318.15 K, x1 = 0.0153 | 981.488
318.15 K, x1 = 0.018 | 979.939
318.15 K, x1 = 0.02 | 978.288
318.15 K, x1 = 0.15 | 912.237
318.15 K, x1 = 0.1972 | 896.689
318.15 K, x1 = 0.3 | 874.067
318.15 K, x1 = 0.4972 | 840.492
318.15 K, x1 = 0.66 | 821.213
318.15 K, x1 = 0.85 | 804
328.15 K, x1 = 0.00418 | 983.308
328.15 K, x1 = 0.00896 | 980.507
328.15 K, x1 = 0.01 | 979.617
328.15 K, x1 = 0.0133 | 977.934
328.15 K, x1 = 0.3823 | 848.444
328.15 K, x1 = 0.545 | 824.697
328.15 K, x1 = 0.7049 | 807.305
328.15 K, x1 = 0.795 | 800.206
328.15 K, x1 = 0.945 | 790.511
